We go through twelve compounds from PubChem BioAssay (NCI).

Values joined by “and” are separate entries in the source; they are usually repeats but may differ in a detail not shown here. Equal entries are not always repeated.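 Tested at 5 concentrations; 48 h exposure; 96-well plates; endpoints linearly interpolated, else capped at highest concentration. Abbreviation: GI50, concentration required for 50% inhibition of growth. TGI is the concentration that stops growth completely.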

Holding throughout (assay): NCI tumour cell line growth inhibition, 48 h
Experiment [1] concerns DMS 273 small cell lung.
The test system of experiment [2] is DMS 114 small cell lung.
The test system of experiment [3] is LXFL 529 NSCLC.
The subject of experiment [4] is XF 498 CNS.
Experiment [5] deals with SNB-78 CNS.
Experiment [6] has as its system DLD-1 colon.
For experiment [7], the system named is P388 leukemia.
In experiment [8] the test system is SN12K1 renal.
For experiment [9], the system named is HOP-18 NSCLC.
The subject of experiment [10] is P388/ADR leukemia.

`N#C/C(=C\c1ccccc1Br)C(=O)c1ccccc1`: the TGI in experiment [1] was more than 100 µM; in experiment [2] it was more than 100 µM; in experiment [3], more than 58.3 µM; in experiment [4] it was more than 79.9 µM; in experiment [5], more than 100 µM.

As to `CCN(CC)CCNc1ccc2ncn3c4cc(=O)ccc4c(O)c1c23`, the TGI came to 17 µM in [6]; 13.2 µM in experiment [1]; 18.1 µM in [2]; 20.5 µM in experiment [3]; 12.8 µM in [4]; 25.4 µM in experiment [5].

With `CCCCCCCCCCSCC(CO)NC(=O)/C=C/c1c(C)[nH]c(=O)[nH]c1=O` (stereo unspecified), the TGI in [6] was more than 50 µM; in [7], 7.15 µM and 6.31 µM; in [1], more than 50 µM; in [8] it was > 35.6 µM and 19.9 µM; in experiment [2], 5.93 µM and 4.33 µM; in [9], more than 50 µM. For the same compound, the TGI in [4] was 2.19 µM and 3.61 µM; in experiment [10] it was more than 50 µM; in experiment [5], more than 31.6 µM. The GI50 was 1.97 µM and 4.58 µM in experiment [1]; 2.91 µM and > 26.8 µM in experiment [9].

With `O=C1C[C@H](c2ccc(O)c(O)c2)Oc2cc(O)cc(O)c21`, the TGI in experiment [6], in experiment [1], in experiment [2], in experiment [9], in experiment [3] and in experiment [5] was more than 100 µM in each case.

`COC(=O)C1C2CC3C(OC(=O)C31)C2OC(=O)[C@](OC)(c1ccccc1)C(F)(F)F` (stereo partly specified): the TGI in [6], in experiment [1], in experiment [2], in experiment [3], in experiment [4] and in [5] was more than 100 µM throughout.

As to `O=C1NC2(C=Cc3c(ccc4ccccc34)O2)Oc2ccccc21` (stereo unspecified), the TGI in [1] was 76.1 µM; in experiment [2], 51 µM; in experiment [3], 56.4 µM; in [4], more than 100 µM; in [5], 94.1 µM.

Consider `c1ccc(C2[C@@H]3CCCc4ccccc4C3=NN2c2ccccc2)cc1` (stereo partly specified), for which the TGI in experiment [6], in [2], in experiment [3], in experiment [4] and in experiment [5] was more than 100 µM throughout.

Consider `CC(=O)C1(O)Cc2c(O)c3c(c(O)c2C(OC2CC(N)C(O)C(C)O2)C1)C(=O)c1ccccc1C3=O` (stereo unspecified), for which the TGI in experiment [6] is 0.498 µM; in experiment [1], less than 0.0108 µM; in experiment [9], 0.0869 µM; in [3], 0.25 µM; in experiment [4], 0.181 µM; in experiment [5] it was 0.592 µM.

Turning to `CC(=O)CC(=O)/C=C/c1cccs1`, the TGI in [6], in experiment [2] and in experiment [3] was more than 100 µM each time.

With `CC(=O)n1ccc2c(Cl)ncnc21`, the TGI in experiment [6], in [1], in [2], in [9], in experiment [3] and in experiment [5] was more than 100 µM in each case.

On to `c1ccc(CCn2cncn2)cc1`, for which the TGI in experiment [6], in [1], in experiment [2], in experiment [3] and in experiment [5] was more than 100 µM each time.

Regarding `COC[C@@H](Cc1ccc(OC)c(OC)c1)[C@@H](COC)Cc1ccc(OC)c(OC)c1`, the TGI in experiment [6], in experiment [1], in [2], in [9], in [3] and in experiment [4] was more than 100 µM each time. Also, the TGI in experiment [5] is more than 100 µM.
